Several values for one entry are separate records, joined by “and”; a condition that tells them apart may be missing. Equal entries are not always repeated. After the bases stand the sugars from the 5' end (letter, count) and the backbone: PS all phosphorothioate, else s phosphorothioate and o phosphodiester by linkage. Methylation of C is not given here. e = 2'-O-(2-methoxyethyl) (MOE); k = constrained ethyl (cEt); d = 2'-deoxy (DNA)

This data set concerns the target IRF4. The settings on record: ASO.

As for GACTCAAGAAAATAGG (sugars k3 d10 k3, PS), the target mRNA inhibition (SK-MEL-28, 4 µM) was found to be 64%.

Consider “TGGGATTATATACTGG (sugars kddddddddddkekek, PS)”, for which the target mRNA inhibition (MM.1R, 1 µM) was determined as 43%. On to GAAAAGCAGCGAAAAG (sugars k3 d10 k3, PS), for which the target mRNA inhibition (SK-MEL-28, 4 µM) amounted to 2%. For “AGGCACATCAATGTTT (sugars kkdddddddddkdkdk, PS)”, the target mRNA inhibition (MM.1R, 1 µM) was 4% and 19%. For GAAAGAATGGCGCATA (sugars k3 d10 k3, PS), the target mRNA inhibition (SK-MEL-28, 4 µM) worked out at 49%. As for “TCAGTTTGTGAAGCAT (sugars kddddddddddkekek, PS)”, the target mRNA inhibition (MM.1R, 1 µM) amounted to 21%.

With GGACACTTTTAGAGAG (sugars k3 d10 k3, PS), the target mRNA inhibition (SK-MEL-28, 4 µM) was 62%. Consider CGCCAGCCAGATGTTT (sugars k3 d10 k3, PS), for which, under “MM.1R, 1 µM”, the target mRNA inhibition was -15%.

In the case of CTAGTCGCGCAAGTCT (sugars k3 d10 k3, PS), the target mRNA inhibition (MM.1R, 1 µM) is -4%.

Consider AACCAGCCCTTGCTGC (sugars k3 d10 k3, PS), for which the target mRNA inhibition (SK-MEL-28, 4 µM) was 21%. With AAACTATAATTGGCAC (sugars k3 d10 k3, PS), the target mRNA inhibition (SK-MEL-28, 4 µM) came out at 30%. Consider “ATTATATACTGGTTGG (sugars kdddddddddkekeke, PS)”, for which the target mRNA inhibition (MM.1R, 1 µM) was 27%. Regarding TGTCAAACCCTACTGG (sugars k3 d10 k3, PS), the target mRNA inhibition (SK-MEL-28, 4 µM) amounted to 23%. On the same count and under the same terms, the value for GACTTCGGGAGATACG (sugars k3 d10 k3, PS) was 14%. On to “AGTTGTAAATGAGTCG (sugars kkddddddddddkeke, PS)”, for which the target mRNA inhibition (H929, 0.04 µM) is 53% and 73%; the target mRNA inhibition (KMS11, 0.2 µM) was 83% and 91%; the target mRNA inhibition (MM.1R, 0.074 µM) was found to be 28%; the target mRNA inhibition (MM.1R, 0.222 µM) was determined as 44%; the target mRNA inhibition (MM.1R, 0.666 µM) came out at 65%; the target mRNA inhibition (MM.1R, 1 µM) is 59%. Moreover, the target mRNA inhibition (MM.1R, 2 µM) amounted to 81%. On to TCCATTGGAGGAGGGT (sugars k3 d10 k3, PS), for which, under “SK-MEL-28, 4 µM”, the target mRNA inhibition is 33%. With TCTTATGCATGTTCCT (sugars k3 d10 k3, PS), the target mRNA inhibition (SK-MEL-28, 4 µM) turned out to be 62%.

Take “ATTATATACTGGTTGG (sugars kkdddddddddekeke, PS)”: under “MM.1R, 1 µM”, the target mRNA inhibition amounted to 43%. Same read-out and setting: the value for ACCGAACACACCAGGT (sugars k3 d10 k3, PS) was -14%; that for “ACTTTTAGAGAGGAGA (sugars kddddddddddkekek, PS)” was 32%. Regarding GTTAACAATATGCTTC (sugars k3 d10 k3, PS), the target mRNA inhibition (SK-MEL-28, 4 µM) was determined as 25%. Still for that read-out and setting: the value for TCCTATGGTCAGCCTC (sugars k3 d10 k3, PS) was 48%. As for AGACAGATGACATGCT (sugars k3 d10 k3, PS), the target mRNA inhibition (SK-MEL-28, 4 µM) stood at 50%. Still for that read-out and setting: the value for TCCTAACCCTACCCTT (sugars k3 d10 k3, PS) was 30%.

As to TGTGTATTACTCTTAG (sugars k3 d10 k3, PS), the target mRNA inhibition (MM.1R, 0.0625 µM) stood at 3%; the target mRNA inhibition (MM.1R, 0.25 µM) was 20%; the target mRNA inhibition (MM.1R, 1 µM) is 75% and 62%; the target mRNA inhibition (MM.1R, 4 µM) was determined as 93%. Regarding TCAAACACTAATACCT (sugars k3 d10 k3, PS), the target mRNA inhibition (SK-MEL-28, 4 µM) turned out to be 25%. GTGAGATGCGGAGGTT (sugars k3 d10 k3, PS): the target mRNA inhibition by setting is: (MM.1R, 0.0625 µM) 14%; (MM.1R, 0.25 µM) 12%; (MM.1R, 1 µM) 39%; (MM.1R, 4 µM) 66%.

As for CTCCGGAGTCAGTGCT (sugars k3 d10 k3, PS), for the setting “MM.1R, 1 µM”, the target mRNA inhibition amounted to 1%. For TTGCCTTCGCTCACTC (sugars k3 d10 k3, PS), for the setting “SK-MEL-28, 4 µM”, the target mRNA inhibition stood at 22%. Still for that read-out and setting: in the case of ATATAACGGTGTTTCA (sugars k3 d10 k3, PS) it was 58%; in that of TGTAGTATGAGAAACG (sugars k3 d10 k3, PS), 69%; in that of CAACAGCACTGTCCAC (sugars k3 d10 k3, PS), 43%. Turning to GGTAAGATCTCCATGG (sugars k3 d10 k3, PS), the target mRNA inhibition (SK-MEL-28, 4 µM) was 45%.

The values are drawn from the OligoGym collection.
